A short description of series [1]: Cytotoxicity against human neutrophil granulocytes upto 100 ug/mL.
A short description of series [2]: Enhancement of human neutrophil granulocytes phagocytosis at 10 to 100 ug/mL by flow cytometric analysis. It counts as functional.

As to `CC(=O)O[C@@H]1[C@H](O[C@@H]2O[C@H](CO)[C@@H](O)[C@H](O)[C@H]2O)[C@@H](O[C@@H]2O[C@@H](C)[C@H](O[C@@H]3OC[C@@H](O)[C@H](O)[C@H]3O[C@@H]3OC[C@H](O)[C@H](O)[C@H]3O[C@@H]3OC[C@H](O)[C@H](O)[C@H]3O)[C@@H](O)[C@H]2O)[C@H](OC(=O)[C@]23CCC(C)(C)C[C@H]2C2=CC[C@@H]4[C@@]5(C)CC[C@H](O[C@@H]6O[C@H](C(=O)O)[C@@H](O)[C@H](O)[C@H]6O[C@@H]6O[C@H](CO)[C@H](O)[C@H](O)[C@H]6O)[C@@](C)(C=O)C5=CC[C@@]4(C)[C@]2(C)C[C@H]3O)O[C@@H]1C`, the values for the Activity result in series [1] and in series [2] were “Non-toxic” and 24%, respectively.
